# Results as given in paper PMC6403271, “Characterization, mechanism of action and optimization of activity of a novel peptide-peptoid hybrid against bacterial pathogens involved in canine skin infections” (Scientific Reports, 2019).
# Square brackets hold non-standard residues; d marks the D form. Peptide text beside a SMILES is read from it. N(1-naphthylmethyl)Gly = O=C(O)CNCc1cccc2ccccc12; 1Nal = N[C@@H](Cc1cccc2ccccc12)C(=O)O; 2Nal = N[C@@H](Cc1ccc2ccccc2c1)C(=O)O; Nphe = O=C(O)CNCc1ccccc1; NBuGly = CCCCNCC(=O)O
# Columns and labels:
# MSSA (ATCC 29213) = format: cell-based, Staphylococcus aureus; conditions: ATCC 29213, 18 h
# Method: (§1) Activity of B1 was tested on 50P. aeruginosa isolates and 57S. pseudintermedius isolates (including 7 MRSP) that had been isolated in the diagnostic laboratory Sund Vet Diagnostik (University of Copenhagen) from various infections in dogs between 2009 and 2011. Representative MRSP (C22963), MSSA, and P. aeruginosa (26314) were used for testing the first set of B1 analogues.
# (§2) MIC determination was performed by broth microdilution according to the Clinical and Laboratory Standard Institute (CLSI, M31-A3, 2008)[62]. In brief, each bacterial strain was diluted to concentration of 5 × 10^5 CFU/mL in Mueller Hinton broth II (MHB II) media (Oxoid) and added to a two-fold serial dilution of peptides and peptide-peptoid hybrids concentrations ranging from 1 to 64 µg/ml in 96-well plates (Nunc Internationals, Rochester, NY). The MICs were determined as a lowest concentration showing no visible growth after incubation for 18 hours at 37 °C. Experiments were performed in triplicates on two different days.
# MRSP C22963 = format: cell-based, Staphylococcus pseudintermedius; conditions: 18 h
# Method: as §1, §2
# P. aeruginosa (26314) = format: cell-based, Pseudomonas aeruginosa; conditions: 26314, 18 h
# Method: Activity of B1 was tested on […]. aeruginosa isolates and […]. pseudintermedius isolates (including 7 MRSP) that had been isolated in the diagnostic laboratory Sund Vet Diagnostik (University of Copenhagen) from various infections in dogs between 2009 and 2011. Representative […], and P. aeruginosa (26314) were used for testing the first set of B1 analogues. For antibacterial spectrum the following strains were used: Corynebacterium auriscanis, 31551, (54 C6, dog, ear, 2013); Enterococcus faecalis, 27404, (17 C7, dog, wound, 2011); Enterococcus faecium, 30951, (24 C1, dog, ear, 2013); Streptococcus canis, 26740-1, (14 H1, dog, ear, 2010); Staphylococcus aureus, 27266, (16 G9, dog, skin, 2010); Staphylococcus aureus, 27266, (16 G9, dog, skin, 2010); Staphylococcus pseudintermedius 22963, (3 B9, dog, 2007). Acinetobacter baumannii, 27065, (16 D1, dog, wound, 2010); E. coli, 30235, 23 A6, dog, wound, 2012; Klebsiella pneumoniae, 26233, (11 H5, dog, wound, 2010); Pasteurella canis, 31096, (24 C8, dog, skin, 2013); Proteus mirabilis, 25178, (9 A4, dog, ear, 2009); Pseudomonas aeruginosa 26314, 12 C5, dog, urine, 2010). MIC determination was performed by broth microdilution according to the Clinical and Laboratory Standard Institute (CLSI, […]-A3, 2008)[62]. In brief, each bacterial strain was diluted to concentration of 5 × 10^5 CFU/mL in Mueller Hinton broth II (MHB II) media (Oxoid) and added to a two-fold serial dilution of peptides and peptide-peptoid hybrids concentrations ranging from 1 to 64 μg/ml in 96-well plates (Nunc Internationals, Rochester, NY). The MICs were determined as a lowest concentration showing no visible growth after incubation for 18 hours at 37 °C. Experiments were performed in triplicates on two different days.
# [1] = format: cell-based, human; conditions: human
# Method: (§3) Briefly, two-fold serial dilutions (2.35 to 150 μM) of compounds in phosphate buffer saline (PBS) were mixed with equal volume of 0.5% v/v suspension of fresh human red blood cells (RBC) in the same buffer. After 1 h incubation at 37 °C, plates were centrifuged and aliquots of the supernatants were transferred to clear 96-well plates. Absorbance at 414 nm was measured and normalized using a negative (PBS, 0%) and a positive (melittin, 100%) control. The EC10 and EC50 are concentrations at which 10% and 50% of RBC were lysed, respectively, as interpolated graphically by the y-axis intersection of the plotted data.
# human red blood cells = format: cell-based; conditions: for EC50: red cells of human, 1 h
# Method: as §3
EC50 (human red blood cells),Structure (SMILES),Minimum Inhibitory Concentration MSSA (ATCC 29213) (MSSA (ATCC 29213)),Minimum Inhibitory Concentration MRSP C22963 (MRSP C22963),Minimum Inhibitory Concentration P. aeruginosa (26314) (P. aeruginosa (26314)),"hemolysis at 1 h, 150 µM [1]",Haemolysis EC10 (human red blood cells)
–,"CCCCN(CC(=O)N[C@@H](CCCCN)C(=O)N[C@@H](CCCCN)C(=O)N[C@@H](CCCCN)C(N)=O)C(=O)CN(Cc1cccc2ccccc12)C(=O)CN(Cc1ccccc1)C(=O)CNCc1cccc2ccccc12 [Compound 4, (N1-Nal)Gly-(NPhe)Gly-(N1-Nal)Gly-(NBu)Gly-Lys-Lys-Lys] (H-[N(1-naphthylmethyl)Gly][Nphe][N(1-naphthylmethyl)Gly][NBuGly]KKK-NH2; N-terminus assumed)",16 µg/mL,8 µg/mL,32 µg/mL,24%,54 µM
58 µM,"CC(C)C[C@H](NC(=O)[C@H](CCCCN)NC(=O)[C@@H](N)CCCCN)C(=O)N[C@@H](CCCCN)C(=O)N[C@@H](Cc1cccc2ccccc12)C(=O)N[C@@H](Cc1ccccc1)C(=O)N[C@@H](Cc1cccc2ccccc12)C(N)=O [Compound 6, Lys-Lys-Leu-Lys-(1-Nal)Ala-Phe-(1-Nal)Ala] (H-KKLK[1Nal]F[1Nal]-NH2; N-terminus assumed)",32 µg/mL,8 µg/mL,8 µg/mL,96%,5 µM
140 µM,"CC(C)C[C@H](NC(=O)[C@H](CCCCN)NC(=O)[C@H](CCCCN)NC(=O)[C@@H](N)CCCCN)C(=O)N[C@@H](Cc1cccc2ccccc12)C(=O)N[C@@H](Cc1ccccc1)C(=O)N[C@@H](Cc1cccc2ccccc12)C(N)=O [Compound 7, Lys-Lys-Lys-Leu-(1-Nal)Ala-Phe-(1-Nal)Ala] (H-KKKL[1Nal]F[1Nal]-NH2; N-terminus assumed)",16 µg/mL,8 µg/mL,16 µg/mL,55%,8 µM
–,"CC(C)C[C@H](NC(=O)[C@H](CCCCN)NC(=O)[C@@H](N)CCCCN)C(=O)N[C@@H](CCCCN)C(=O)N[C@@H](Cc1ccc2ccccc2c1)C(=O)N[C@@H](Cc1ccccc1)C(=O)N[C@@H](Cc1ccc2ccccc2c1)C(N)=O [Compound 8, Lys-Lys-Leu-Lys-(2-Nal)Ala-Phe-(2-Nal)Ala] (H-KKLK[2Nal]F[2Nal]-NH2; N-terminus assumed)",16 µg/mL,8 µg/mL,32 µg/mL,34%,56 µM
–,"CC(C)C[C@H](NC(=O)[C@H](CCCCN)NC(=O)[C@H](CCCCN)NC(=O)[C@@H](N)CCCCN)C(=O)N[C@@H](Cc1ccc2ccccc2c1)C(=O)N[C@@H](Cc1ccccc1)C(=O)N[C@@H](Cc1ccc2ccccc2c1)C(N)=O [Compound 9, Lys-Lys-Lys-Leu-(2-Nal)Ala-Phe-(2-Nal)Ala] (H-KKKL[2Nal]F[2Nal]-NH2; N-terminus assumed)",16 µg/mL,8 µg/mL,16 µg/mL,39%,46 µM
–,"CC(C)C[C@H](NC(=O)[C@H](Cc1ccc2ccccc2c1)NC(=O)[C@H](Cc1ccccc1)NC(=O)[C@@H](N)Cc1ccc2ccccc2c1)C(=O)N[C@@H](CCCCN)C(=O)N[C@@H](CCCCN)C(=O)N[C@@H](CCCCN)C(N)=O [Compound 13, (2-Nal)Ala-Phe-(2-Nal)Ala-Leu-Lys-Lys-Lys] (H-[2Nal]F[2Nal]LKKK-NH2; N-terminus assumed)",32 µg/mL,8 µg/mL,>64 µg/mL,15%,110 µM
